Results taken from patent US5219873A, “Compounds of 1,2,5,6-tetrahydropyridine which are useful as cholinergic agents” (Roussel UCLAF, priority 1987, dated 1993).
Read-outs that look alike come from different tables or passages of the source.

Experiments:
[1] = Hypothermic activity, male mice (body temperature); type: in vivo, mice (CD1 Charles Rivers); conditions: for ED (-1 C body temperature): Mus musculus, male mice, read-out: Effective dose (-1° C.)
Protocol: (§1) The products have been utilized in the hydrochloride form.
The test is carried out on male mice (CD1 Charles Rivers), weighing 25-30 g, fasting for 6 hours.
The temperature of the body is noted by means of a thermocouple placed in the rectum to about 1.5 cm and connected to an electric temperature recorder. […]
The degree of hypothermia is evaluated as the difference between the treated animals and the controls, and the dose necessary to reduce the body temperature by 1° C. is determined.
The duration of action of the products has been evaluated by using the dose which reduces the body temperature by 1° to 1.5° C.

[2] = test system: central cholinergic system; conditions: cited from earlier work
[3] = test system: ileum isolated from guinea-pig; assay: Test on ileum isolated from guinea-pig (contraction, agonist activity); type: cell-based; conditions: Cavia porcellus, Tyrode's solution, 37° C., read-out: pD2 (negative logarithm of the dose which produces 50% of the maximum effect) (converted)
Protocol: as §1
Pieces of the ileum are removed from guinea-pigs killed by decapitation. The isolated ileum is placed in 10 cm^3 of Tyrode's solution at 37° C. and aerated with a mixture of oxygen (95%) and carbon dioxide gas (5%). The contractions due to the products are recorded by means of a detector connected to a polygraph. The products to be tested are added at concentrations between 1.10^-3 M/l and 1.10^-8 M/l.
The products presenting a contraction effect are tested relative to atropine and hexamethonium to establish whether the activity is of the "muscarine" or "nicotine" type.
The agonist activity is expressed in pD2 (negative logarithm of the dose which produces 50% of the maximum effect.

[4] = intravenous route; cited from earlier work
[5] = Diarrhoeic activity, oral, male mice; type: in vivo, mice (CD1, Charles Rivers); conditions: Mus musculus, read-out: ED50 (dose which caused a diarrhoea in 50% of the animals)
Protocol: as §1
The test is carried out on male mice (CD1, Charles Rivers) weighing 25 to 30 g, fasting for 6 hours.
The control animals receive only the excipient.
After treatment, the animals are put separately in cages the base of which is covered with blotting paper and are put under observation for 30, 60, 120 and 180 minutes.
The sheets of absorbent paper are changed after each observation.
1: feces slightly soft with or without humid aureola.
2: feces slightly soft with presence of a well defined humid circle.
3: feces soft with presence of a large humid circle.
4: feces without consistency with presence of a very large humid circle.

[6] = Acute toxicity, oral, male mice; set-up: species or system mice (CD1 Charles Rivers); conditions: mouse, in vivo, mortality during 7 days
Protocol: as §1
The test was carried out on male mice (CD1 Charles Rivers) of 22 to 24 g, fasting for 16 hours. […] The mortality is noted during the 7 days following the treatment.

Compound	EC50 [3] [µM]	ED (-1 C body temperature) ([1]; po, per os) [mg/kg]	ED (-1 C body temperature) ([1]; sc, s.c.) [mg/kg]	ED50 [5] [mg/kg]	LD50 at 168 h [6] [mg/kg]	Variation of the Body Temperature ([1]; 1 mg/kg p.o., 0 min)	Variation of the Body Temperature ([1]; 1 mg/kg p.o., 30 min) [°C]	Variation of the Body Temperature ([1]; 1 mg/kg p.o., 60 min) [°C]	Variation of the Body Temperature ([1]; 1 mg/kg p.o., 120 min) [°C]	Variation of the Body Temperature ([1]; 1 mg/kg p.o., 180 min) [°C]	Variation of the Body Temperature ([1]; 1 mg/kg s.c., 0 min)	Variation of the Body Temperature ([1]; 1 mg/kg s.c., 30 min) [°C]	Variation of the Body Temperature ([1]; 1 mg/kg s.c., 60 min) [°C]	Variation of the Body Temperature ([1]; 1 mg/kg s.c., 120 min)	Variation of the Body Temperature ([1]; 1 mg/kg s.c., 180 min)	also measured
COC(=O)C1=CCCN(C)C1 [Arecoline HBr, reference compound]																Variation of the Body Temperature ([1]; 3.5 mg/kg s.c., 0 min): -0.1 °C; Variation of the Body Temperature ([1]; 3.5 mg/kg s.c., 30 min): -1.5 °C; Variation of the Body Temperature ([1]; 3.5 mg/kg s.c., 60 min): -0.1 °C; Variation of the Body Temperature ([1]; 3.5 mg/kg s.c., 120 min): +0.2 °C; Variation of the Body Temperature ([1]; 3.5 mg/kg s.c., 180 min): +0.2 °C; Variation of the Body Temperature ([1]; 200 mg/kg p.o., 0 min): +0.1 °C; Variation of the Body Temperature ([1]; 200 mg/kg p.o., 30 min): -1.1 °C; Variation of the Body Temperature ([1]; 200 mg/kg p.o., 60 min): -1.0 °C; Variation of the Body Temperature ([1]; 200 mg/kg p.o., 120 min): -0.2 °C; Variation of the Body Temperature ([1]; 200 mg/kg p.o., 180 min): -0.1 °C
COC(=O)C1=CCCN(C)C1 [Arecoline, reference compound]	0.331	194	3	35												activity by oral route [2]: very weak activity by oral route; effect on patients having a memory defect [4]: positive effect on patients having a memory defect
CC(=NO)C1=CCCNC1 [Example 1, 3-acetyl-1,2,5,6-tetrahydropyridine-oxime]	5.62	9	11	5	350											Variation of the Body Temperature ([1]; 10 mg/kg p.o., 0 min): 0 °C; Variation of the Body Temperature ([1]; 10 mg/kg p.o., 30 min): -0.7 °C; Variation of the Body Temperature ([1]; 10 mg/kg p.o., 60 min): -1.0 °C; Variation of the Body Temperature ([1]; 10 mg/kg p.o., 120 min): -0.2 °C; Variation of the Body Temperature ([1]; 10 mg/kg p.o., 180 min): +0.1 °C; Variation of the Body Temperature ([1]; 10 mg/kg s.c., 0 min): 0 °C; Variation of the Body Temperature ([1]; 10 mg/kg s.c., 30 min): -0.6 °C; Variation of the Body Temperature ([1]; 10 mg/kg s.c., 60 min): -0.8 °C; Variation of the Body Temperature ([1]; 10 mg/kg s.c., 120 min): -0.2 °C; Variation of the Body Temperature ([1]; 10 mg/kg s.c., 180 min): 0 °C
CON=C(C)C1=CCCN(C)C1 [Example 2, 1-methyl-3-acetyl-1,2,5,6-tetrahydropyridine-O-methyl-oxime]	14.1	12	25	> 100	350											Variation of the Body Temperature ([1]; 20 mg/kg p.o., 0 min): +0.1 °C; Variation of the Body Temperature ([1]; 20 mg/kg p.o., 30 min): -1.3 °C; Variation of the Body Temperature ([1]; 20 mg/kg p.o., 60 min): -1.3 °C; Variation of the Body Temperature ([1]; 20 mg/kg p.o., 120 min): -0.9 °C; Variation of the Body Temperature ([1]; 20 mg/kg p.o., 180 min): 0 °C; Variation of the Body Temperature ([1]; 40 mg/kg s.c., 0 min): +0.1 °C; Variation of the Body Temperature ([1]; 40 mg/kg s.c., 30 min): -1.0 °C; Variation of the Body Temperature ([1]; 40 mg/kg s.c., 60 min): -1.4 °C; Variation of the Body Temperature ([1]; 40 mg/kg s.c., 120 min): -1.1 °C; Variation of the Body Temperature ([1]; 40 mg/kg s.c., 180 min): -0.8 °C
CON=C(C)C1=CCCNC1 [Example 3, 3-acetyl-1,2,5,6-tetrahydropyridine-O-methyl-oxime]	0.0316	0.87	0.91	0.85	125	+0.1 °C	-1.1	-1.0	-0.1	-0.1	+0.1 °C	-1.0	-0.8	+0.1 °C	+0.1 °C	
CON=C(C)C1=CCCN(O)C1 [Example 12, 1-N-hydroxyl-3-acetyl-1,2,5,6-tetrahydropyridine-O-methyl-oxime]	4.07	0.77	0.72	1	175	0 °C	-1.3	-1.1	0	0	-0.1 °C	-1.4	-1.3	+0.1 °C	0 °C	
